Peptide text beside a SMILES is read from it.
Legend:
[1] = system: murine melanoma cells, K-1735-M4; assay: Cell adhesion assay for M4 cell line (Example 6A); assay type: cell-based; details: FIG. 10
Experimental: (§1) Adhesion was measured using 96 well microtiter plates adsorbed with three different amounts (0.1; 1.0; and 10.0 μg/per well) of peptides 9, 11-18, BSA and laminin. Cultures of cells which were 60-80% confluent were metabolically labeled for 24 hours with the addition of 3 mCi/ml of ^3 H-amino acid mixture. On the day of the assay, the cells were harvested by trypsinization, the trypsin was inhibited by the addition of serum, and the cells were washed free of this mixture and resuspended in DMEM buffered with HEPES at pH 7.2. The adhesion medium also contained 2 mg/ml BSA. The cells were adjusted to a concentration of 3-4×10^4 /ml and 100 μls of this cell suspension was added to the wells. The assay mixture was then incubated at 37° C for 120 minutes. At the end of the incubation, the wells were washed with warm PBS containing 10 mM Ca^++, and the adherent population was solubilized with 0.5N NaOH containing 1% sodium dodecyl sulfate. The solubilized cells were then quantitated using a liquid scintillation counter. Each determination was done in triplicate.
Highly metastatic murine melanoma cells, K-1735-M4 were originally provided by Dr. I. J. Fidler of Anderson Hospital, University of Texas Health Sciences Center, Houston, Tex. When the cells were received, a large number of early passage cells were propagated and frozen in liquid nitrogen. […]

[2] = Heparin binding assay on nitrocellulose sheets (Example 1); details: peptide on nitrocellulose, 1 mg/ml to 1 μg/ml, 2 hours, FIG. 4
Experimental: The assay for heparin binding utilizes nitrocellulose sheets as subtrata to bind peptides or proteins to be tested for heparin binding activity. Peptides 9 and 11-18 were solubilized in 50 mM NH3 HCO3 to form solutions of 1 mg/ml. Each solution was serially diluted 1:1 in the same buffer producing concentrations from 1 mg/ml to 1 μg/ml. Nitrocellulose sheets which had been presoaked in 50 mM NH3 HCO3 were placed in a 96 well dot blot apparatus (Bethesda Research Laboratories, Bethesda, MD, and 100 μl of various concentrations of each peptide were aspirated through the wells. Each well was then washed three times with binding buffer (10 mM Tris-HCl, pH 8.0, 0.15 M NaCl), and the filters were removed and allowed to air dry overnight. The filters were then equilibriated for 5 minutes at room temperature in binding buffer which contained 10 mM CaCl2. ^3 H-heparin was then diluted to a concentration of 50,000 cpm/ml in binding buffer (with Ca^++), and nitrocellulose sheets were incubated in the presence of this mixture for 2 hours. The filters were then washed four times with binding buffer, and air dried. The individual spots of samples were cut out of the nitrocellulose, immersed in scintillation fluid and bound heparin was quantitated with a Beckman LS-3801 liquid scintillation counter. […]

[3] = system: PC12 rat pheochromocytoma cells; assay: Cell adhesion assay for PC12 pheochromocytoma cell line (Example 6D); assay type: cell-based; details: FIG. 13
Experimental: as §1
PC12 rat pheochromocytoma cells were provided by Dr. P. Letourneau of the Department of Anatomy, University of Minnesota, Minneapolis, Minn. Culturing techniques were as described in part A. Labelling and harvesting techniques were as described in Example 5. Cell adhesion assay was performed as described in Example 5.

[4] = system: Rat C6 glioma cell line; assay: Cell adhesion assay for C6 cell line (Example 6C); assay type: cell-based; details: FIG. 12
Experimental: as §1
Rat C6 glioma cell line was purchased from the American Type Culture Collection (identification number CCL 107). Culturing techniques were as described in part A. Labelling and harvesting techniques were as described in Example 5. Cell adhesion assay was performed as described in Example 5.

[5] = Heparin binding to peptides coated on 96-well plastic plates (Example 2); details: 1 mg/ml to 1 μg/ml, two hours at 37° C., FIG. 5
Experimental: In order to test the ability of the synthesized peptides (9 and 11-18) to bind to 96-well plastic plates (in which experiments with cultured cell lines can be performed), we did an experiment similar to that described above in Example 1. Stock solutions of peptides 9 and 11-18, laminin and BSA at a maximum concentration of 1 mg/ml were prepared and serially diluted in PBS+NaN3 producing final concentration from 1 mg/ml to 1 μg/ml. Fifty μl from each concentration was coated on the 96-well plates and left to dry overnight at 28° C. Then, wells were treated for two hours with […] of 2 mg/ml BSA in 6 mM phosphate, 100 mM NaCl, 68 μM CaCl2, pH 6.8 (wash buffer) in order to minimize non-specific binding. Next 50 μls of ^3 H-heparin (10 μg/ml) was added (50,000 cpm/well) for two hours at 37° C. The wells were then washed three times with wash buffer containing 0.05% Triton X-100 and finally they were incubated for thirty minutes at 60 C with 200 μl of 0.5 N NaOH and 1% SDS. The amount of ^3 H-heparin bound at each peptide concentration was quantitated as described above in Example 1.

[6] = system: Murine fibrosarcoma cells (uv-2237-MM); assay: Cell adhesion assay for MM fibrosarcoma cell line (Example 6B); assay type: cell-based; details: FIG. 11
Experimental: as §1
Murine fibrosarcoma cells (uv-2237-MM) were originally provided by Dr. I. J. Fidler of Anderson Hospital, University of Texas Health Sciences Center, Houston, Tex. Culturing, labeling and harvesting techniques were as described in part A. Cell adhesion assay was performed as described in Example 5.

binding of ^3 H-heparin [2]	binding of ^3 H-heparin [5]	SMILES	cell adhesion [1]	cell adhesion [3]	cell adhesion [4]	cell adhesion [6]
strongly bound ^3 H-heparin	binds heparin but less extensively	CC[C@H](C)[C@H](NC(=O)[C@H](CCCCN)NC(=O)[C@H](CC(C)C)NC(=O)[C@H](C)NC(=O)[C@H](CCCCN)NC(=O)[C@H](C)NC(=O)[C@H](CCCCN)NC(=O)[C@H](CCC(=O)O)NC(=O)[C@H](CC(C)C)NC(=O)[C@H](Cc1ccccc1)NC(=O)[C@H](CCCCN)NC(=O)[C@H](Cc1c[nH]cn1)NC(=O)[C@@H](NC(=O)[C@H](CCCNC(=N)N)NC(=O)[C@H](CC(N)=O)NC(=O)[C@@H](NC(=O)[C@H](CC(C)C)NC(=O)[C@@H](N)CCC(=O)O)[C@@H](C)O)[C@@H](C)O)C(=O)O [Peptide F13, ELTNRTHKFLEKAKALKI] (H-ELTNRTHKFLEKAKALKI-OH)	potent promoters of cell adhesion	potent promoters of cell adhesion	potent promoters of cell adhesion	potent promoters of cell adhesion
strongly bound ^3 H-heparin	bind heparin very well	CSCC[C@H](NC(=O)CNC(=O)[C@H](CCCCN)NC(=O)[C@H](CCC(=O)O)NC(=O)[C@H](Cc1ccccc1)NC(=O)[C@H](CS)NC(=O)[C@@H](NC(=O)[C@@H]1CCCN1C(=O)[C@H](CCCNC(=N)N)NC(=O)[C@@H]1CCCN1C(=O)[C@H](CC(C)C)NC(=O)[C@@H](NC(=O)[C@@H](NC(=O)[C@H](Cc1ccc(O)cc1)NC(=O)[C@@H](N)CCCNC(=N)N)C(C)C)C(C)C)C(C)C)C(=O)N[C@@H](CC(N)=O)C(=O)N[C@@H](Cc1ccc(O)cc1)C(=O)N[C@H](C(=O)N[C@H](C(=O)N[C@@H](CCCNC(=N)N)C(=O)O)C(C)C)[C@@H](C)O [Peptide F9] (H-RYVVLPRPVCFEKGMNYTVR-OH)	potent promoters of cell adhesion	potent promoters of cell adhesion	potent promoters of cell adhesion	potent promoters of cell adhesion

From patent US4870160A, “Polypeptides with laminin activity” (Regents of the University of Minnesota, priority 1987, dated 1989)
